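48-hour exposure; five concentrations; linearly interpolated endpoints. GI50: concentration for 50% inhibition of growth.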 Active and inactive are the calls of the source. Cut-off read from the data, not from the text of the source: active = GI50 up to about 1.1 µM and inactive = higher.
How the values were obtained:
Assay in all cases: DTP human tumour cell line panel, 48 h
[1] = tested on: 786-0
[2] = tested on: ACHN
[3] = tested on: CCRF-CEM
[4] = tested on: DU-145
[5] = tested on: K562
[6] = tested on: KM12
[7] = tested on: LOX IMVI
[8] = tested on: MCF7
[9] = tested on: NCI-H226
[10] = tested on: NCI-H23
[11] = tested on: NCI-H460
[12] = tested on: OVCAR-3
[13] = tested on: OVCAR-8
[14] = tested on: RPMI-8226
[15] = tested on: RXF 393
[16] = tested on: SK-MEL-5
[17] = tested on: UACC-62
[18] = tested on: BT-549
[19] = tested on: HCT-116
[20] = tested on: SN12C

Measured: GI50

C[C@@H](Cl)[C@H]1CCCN(Cc2ccc(Br)cc2)C1
inactive: [1] > 12.5 µM | [2] > 12.5 µM | [3] > 12.5 µM | [4] > 12.5 µM | [5] > 12.5 µM | [6] > 12.5 µM | [7] > 12.5 µM | [8] > 12.5 µM | [9] > 12.5 µM | [10] > 12.5 µM | [11] > 12.5 µM | [12] > 12.5 µM | [13] > 12.5 µM | [14] > 12.5 µM | [15] > 12.5 µM | [16] > 12.5 µM | [17] > 12.5 µM

CCN(CC)CCn1nc(N)c2nc3ccccc3nc21
inactive: [1] > 100 µM | [2] > 100 µM | [18] > 100 µM | [3] > 100 µM | [19] 53.8 µM | [5] > 100 µM | [6] > 100 µM | [7] > 100 µM | [8] > 100 µM | [9] > 100 µM | [10] > 100 µM | [11] > 100 µM | [12] > 100 µM | [13] > 100 µM | [14] > 100 µM | [15] > 100 µM | [20] > 100 µM | [17] > 100 µM

CSc1ncc2c(n1)C(C#N)C1Sc3ccccc3N1C2=O (centres undefined)
inactive: [1] 76.9 µM | [2] 59.4 µM | [18] > 100 µM | [4] > 100 µM | [19] > 100 µM | [6] > 100 µM | [7] > 100 µM | [9] > 100 µM | [10] 78 µM | [11] > 100 µM | [12] > 100 µM | [13] > 100 µM | [14] > 100 µM | [15] 65 µM | [16] > 100 µM | [20] > 100 µM

Cc1cc(Br)cc(C)c1NC(=O)C(=O)Nn1c(S)nc2ccccc2c1=O
inactive: [1] > 100 µM | [2] > 100 µM | [18] > 100 µM | [3] > 100 µM | [19] > 100 µM | [5] > 100 µM | [6] > 100 µM | [7] > 100 µM | [8] > 100 µM | [9] > 100 µM | [10] > 100 µM | [11] > 100 µM | [12] > 100 µM | [13] > 100 µM | [14] > 100 µM | [15] > 100 µM | [16] > 100 µM | [20] > 100 µM | [17] > 100 µM

O=[N+]([O-])c1ccc(SN=S=NSc2cccc(SN=S=NSc3ccc([N+](=O)[O-])cc3)c2)cc1
inactive: [1] 13.8 µM | [2] 42.3 µM | [18] 19.3 µM | [3] 6 µM | [19] 29.7 µM | [5] 25.2 µM | [6] 34.2 µM | [7] 17.2 µM | [8] 24.6 µM | [11] 31 µM | [12] 62.1 µM | [13] 22.4 µM | [14] 27.7 µM | [16] 28.4 µM | [20] 12.4 µM | [17] 37.8 µM

COC1=CCC=C(C[C@@H]2NCCc3cc(OC)c(OC)cc32)C1
inactive: [1] > 100 µM | [2] > 100 µM | [3] > 100 µM | [19] > 100 µM | [5] > 100 µM | [6] > 100 µM | [7] > 100 µM | [9] 32.1 µM | [10] > 100 µM | [11] > 100 µM | [12] > 100 µM | [13] > 100 µM | [14] > 100 µM | [15] > 100 µM | [16] > 100 µM | [20] > 100 µM | [17] > 100 µM

Cc1cc(C)n(-c2ccnc3cc(Cl)ccc23)n1
inactive: [1] > 100 µM | [2] > 100 µM | [3] > 100 µM | [19] > 100 µM | [5] > 100 µM | [6] > 100 µM | [7] > 100 µM | [9] > 100 µM | [10] > 100 µM | [11] > 100 µM | [12] > 100 µM | [13] > 100 µM | [14] > 100 µM | [15] > 100 µM | [16] > 100 µM | [20] > 100 µM | [17] > 100 µM

CO/C(=N\N=C\c1ccc(OC)cc1OC)c1ccncc1
inactive: [1] > 10 µM | [2] > 10 µM | [3] > 10 µM | [19] > 10 µM | [5] > 10 µM | [6] > 10 µM | [7] > 10 µM | [8] > 10 µM | [9] > 10 µM | [10] > 10 µM | [11] > 10 µM | [13] > 10 µM | [14] > 10 µM | [15] > 10 µM | [16] > 10 µM | [20] > 10 µM

CC(C)[C@H](NC(=O)[C@@H](O)[C@H](N)Cc1ccccc1)C(=O)N[C@@H](Cc1ccccc1)C(=O)O
inactive: [1] > 100 µM | [2] > 100 µM | [3] > 100 µM | [4] > 100 µM | [19] > 100 µM | [5] > 100 µM | [6] > 100 µM | [7] > 100 µM | [8] > 100 µM | [9] > 100 µM | [10] > 100 µM | [11] > 100 µM | [12] > 100 µM | [13] > 100 µM | [14] > 100 µM | [16] > 100 µM | [20] > 100 µM | [17] > 100 µM

CC(C)C(NC(=O)C(Cc1ccccc1)NC(=O)[C@H]1CCC[C@H]1NC(=O)C(N)Cc1ccc(O)cc1)C(N)=O (some centres undefined)
inactive: [1] > 100 µM | [2] > 100 µM | [3] > 100 µM | [4] > 100 µM | [19] > 100 µM | [5] > 100 µM | [6] > 100 µM | [7] > 100 µM | [8] > 100 µM | [9] > 100 µM | [10] > 100 µM | [11] > 100 µM | [12] > 100 µM | [13] > 100 µM | [14] > 100 µM | [15] > 100 µM | [16] 17.8 µM | [20] > 100 µM | [17] > 100 µM

OCC(O)COCn1nncc1Cn1ncc2c(SCc3ccccc3)ncnc21 (centres undefined)
inactive: [1] > 100 µM | [2] > 100 µM | [18] > 100 µM | [3] > 100 µM | [4] > 100 µM | [19] > 100 µM | [6] > 100 µM | [7] > 100 µM | [8] > 100 µM | [10] > 100 µM | [12] > 100 µM | [13] > 100 µM | [16] > 100 µM | [20] > 100 µM | [17] > 100 µM

CCOC(=O)NC(=O)c1cn(C2OC(COC(=O)CCCCCCCCC(=O)OCC3OC(n4cc(C(=O)NC(=O)OCC)c(=O)[nH]c4=O)C4OC(C)(C)OC34)C3OC(C)(C)OC32)c(=O)[nH]c1=O (centres undefined)
inactive: [1] > 100 µM | [2] > 100 µM | [3] 30.1 µM | [19] 39.6 µM | [5] 40.8 µM | [6] 73.8 µM | [7] > 100 µM | [9] 77.4 µM | [10] > 100 µM | [11] > 100 µM | [12] 75.9 µM | [13] 78 µM | [14] 44 µM | [15] > 100 µM | [16] 54.1 µM | [20] 83.8 µM | [17] > 100 µM

O=[As](O)(O)c1cc(/N=N/c2ccc(-c3ccc(/N=N/c4cc([As](=O)(O)O)c(O)cc4O)cc3)cc2)c(O)cc1O
inactive: [1] > 100 µM | [2] > 100 µM | [3] > 45.8 µM | [19] > 100 µM | [5] > 55.5 µM | [6] > 100 µM | [7] > 100 µM | [9] > 100 µM | [10] > 100 µM | [11] > 100 µM | [12] > 52.8 µM | [13] > 100 µM | [14] > 100 µM | [15] > 100 µM | [16] > 88.1 µM | [20] > 100 µM | [17] > 100 µM

COc1cc2ccc3c4cc(OC)c(OC(C)C)cc4cnc3c2cc1OC
inactive: [1] > 100 µM | [2] > 100 µM | [3] > 100 µM | [19] > 100 µM | [5] > 100 µM | [6] > 100 µM | [7] > 100 µM | [9] > 100 µM | [10] > 100 µM | [11] > 100 µM | [12] > 100 µM | [13] > 100 µM | [14] > 100 µM | [15] > 100 µM | [16] > 100 µM | [20] > 100 µM | [17] > 100 µM

Cc1csc(=S)n1OC(=O)NC1CCCCC1
inactive: [1] 19 µM | [2] > 100 µM | [3] 9.57 µM | [19] > 58.2 µM | [5] 31 µM | [6] > 80.9 µM | [7] 65.3 µM | [9] > 100 µM | [10] > 21.9 µM | [11] > 100 µM | [12] > 63.8 µM | [13] > 100 µM | [14] 23.6 µM | [15] > 100 µM | [16] > 51.4 µM | [20] > 100 µM | [17] > 38.1 µM

c1cn[nH]c1 [PYRAZOLE]
inactive: [1] > 10 µM | [2] > 10 µM | [3] > 10 µM | [19] > 10 µM | [5] > 10 µM | [6] > 10 µM | [7] > 10 µM | [8] > 10 µM | [9] > 10 µM | [10] > 10 µM | [11] > 10 µM | [12] > 10 µM | [13] > 10 µM | [14] > 10 µM | [15] > 10 µM | [16] > 10 µM | [20] > 10 µM | [17] > 10 µM
